# Test results: patent US10302644B2, “Compositions and methods for treating multiple myeloma” (Dana-Farber Cancer Institute, Inc., priority 2014, dated 2019)
# Columns and labels:
# p53 [1] = experiment: p53 DNA binding activity assay; assay type: cell-based; conditions: MM.1S and H929 cells, 48 h
# Protocol: E2F1 DNA binding activity was assessed by electrophoretic mobility shift assay (EMSA) using “EMSA Gel Shift Kit®” from Affimetrix (Santa Clara, Calif.), and p53 DNA binding activity was performed using “p53 Transcription Factor Assay Kit®” from Cayman Chemical (Ann Arbor, Mich.). Experiments were carried out according to manufacturer's protocols.
# MM cells = experiment: Growth inhibition assay (MTT) / viable cell count (Trypan-blue); assay type: cell-based
# Protocol: Cell growth was assessed by measuring 3-(4,5-dimethylthiazol-2-yl)-2,5-diphenyl […] bromide (MTT, Chemicon International, Temecula, Calif.) dye absorbance. Cells were pulsed with 10 μl of 5 mg/ml MTT to each well for the last 4 h of 48 h and/or 72 h cultures, followed by 100 μl isopropanol containing 0.04N HCl. Absorbance was measured at 570/630 nm using a spectrophotometer (Molecular Devices Corp., Sunnyvale Calif.).
# E2F1 = E2F1 DNA binding activity (EMSA), protein and mRNA; assay type: cell-based; conditions: MM cells
# Protocol: MM cells were harvested and lysed using RIPA-lysis buffer (Boston Bioproducts, Ashland, Mass.) containing 5 mM EDTA, 5 mM NaF, 2 mM Na3VO4, 1 mM PMSF, 5 μg/ml leupeptin, and 5 μg/ml aprotinin. Nuclear proteins were extracted using “Nuclear Extraction Kit” (Affimetrix). After the determination of protein concentration using DC protein assay (Bio-Rad, Hercules, Calif.), β-mercaptoethanol (-ME) was added to the whole-cell lysates to a 2% final concentration. […]
# RNA was extracted using Trizol (Invitrogen) and quantified by a Nanodrop spectrophotometer (Labtech). […] After quantification, 2000 ng of RNA was used to synthesize cDNA via the Superscript II First strand synthesis Kit (Invitrogen), according to the manufacturer's instructions. To evaluate the expression levels of TP53RK, BCL2L11, MYC, Bim, E2F1, TP53, IKZF1, IKZF3, RRM1, p18CDKN2C, PSMB5, PSMB7, PSMA3 and GAPDH, quantitative real time PCR (QRT-PCR) was performed using SYBR GREEN PCR Master Mix (Applied Biosystem), after optimization of the primer conditions. cDNAs were diluted 1:100 or 1:1000 and amplified in a 20 μL reaction. […] Real-time quantitative PCR was performed on ABI Prism 7300 Sequence Detection System (Applied Biosystems). Data were analyzed using the delta delta Ct method. […]
# [2] = test system: LC3-II, Bim, PARP, MDM2, XIAP, cIAP, p-p70S6K; experiment: Immunoblotting/qPCR of autophagy and apoptosis proteins in MM cells; assay type: cell-based; conditions: MM.1S cells, 2.5 μM, 48 h
# Protocol: (§1) MM cells were harvested and lysed using RIPA-lysis buffer (Boston Bioproducts, Ashland, Mass.) containing 5 mM EDTA, 5 mM NaF, 2 mM Na3VO4, 1 mM PMSF, 5 μg/ml leupeptin, and 5 μg/ml aprotinin. Nuclear proteins were extracted using “Nuclear Extraction Kit” (Affimetrix). After the determination of protein concentration using DC protein assay (Bio-Rad, Hercules, Calif.), β-mercaptoethanol (-ME) was added to the whole-cell lysates to a 2% final concentration. The whole cell lysates or nuclear extracts were subjected to SDS-PAGE, transferred to nitrocellulose membranes (Bio-Rad, Hercules, Calif.) or polyvinylidene fluoride membranes (Millipore, Billerica, Mass.), and immunoblotted with indicated Abs. Silver staining was carried out using “SilverQuest Staining Kit®” (Invitrogen), according to manufacturer's protocol.
# (§2) RNA was extracted using Trizol (Invitrogen) and quantified by a Nanodrop spectrophotometer (Labtech). Specifically, 5×10^6 cells were pelleted, washed with cold PBS, and resuspended in 1 mL Trizol. They were then incubated with 1-Bromo-3-chloropropane (Sigma), washed first with Isopropyl alcohol and then with 75% Ethanol, and resuspended in Nuclease Free-water (Invitrogen). After quantification, 2000 ng of RNA was used to synthesize cDNA via the Superscript II First strand synthesis Kit (Invitrogen), according to the manufacturer's instructions. To evaluate the expression levels of TP53RK, BCL2L11, MYC, Bim, E2F1, TP53, IKZF1, IKZF3, RRM1, p18CDKN2C, PSMB5, PSMB7, PSMA3 and GAPDH, quantitative real time PCR (QRT-PCR) was performed using SYBR GREEN PCR Master Mix (Applied Biosystem), after optimization of the primer conditions. cDNAs were diluted 1:100 or 1:1000 and amplified in a 20 μL reaction. Primers were used at 200 nM or 400 nM concentration. Thermal cycling conditions were: 10 minutes at 95° C., 40 cycles at 95° C. for 15 seconds, followed by 1 minute at 60° C. Real-time quantitative PCR was performed on ABI Prism 7300 Sequence Detection System (Applied Biosystems). Data were analyzed using the delta delta Ct method. GAPDH was used as an invariant control.
# Chk1, ATM, ATR, Chk2 = experiment: Immunoblotting of DNA damage kinase phosphorylation; assay type: cell-based; conditions: MM.1S cells, 48 h
# Protocol: as §1
# RRM1, p18CDKN2C = experiment: RRM1 and p18CDKN2C expression (RT-qPCR, Western blot); assay type: cell-based; conditions: H929 cells
# Protocol: as §1, §2
# p53 target genes = experiment: GEP analysis of patient MM cells before and after lenalidomide treatment; assay type: in vivo, human; conditions: patient MM cells treated with Len; *p < 0.05
# Description: Expression data for plasma cells from healthy donors, monoclonal gammopathy of undetermined significance (MGUS), and smoldering myeloma (SMM) were derived from GSE5900 dataset, while expression data from normal plasma cells and 65 MM patients were obtained from GSE4452 dataset, using expression profiling on Affymetrix GeneChip (t test, unpaired, equal variance). […] Data were then normalized and analyzed using D-chip software, seeking statistically significant differences among groups or in p53-target gene expression. Statistical significance was determined by Student t test. The minimal level of significance was P<0.05. […] Gene set enrichment analysis (GSEA) was performed as previously described (2) (GSEA v2.0 at http://www.broad.mit.edu/gsea) using gene set as permutation type, as well as 1,000 permutations and signal to noise as metrics for ranking genes.
# p53 [3] = experiment: Immunoblotting of p53 and phosphorylated p53 in MM cells; assay type: cell-based
# Protocol: as §1
# hTERT [4] = experiment: Comparative hTERT expression analysis in matched MM patient samples (GSE8546); assay type: in vivo, human; conditions: matched samples before and after Len, GSE8546 dataset
# hTERT [5] = experiment: hTERT expression and telomerase activity (TeloTAGGG Telomerase PCR ELISA); assay type: cell-based; conditions: MM.1S cells and H929 cells
# Protocol: as §1
# Telomerase activity in MM.1S and H929 cells was assessed by “TeloTAGGG Telomerase PCR ELISA®” from Roche Applied Science (Mannheim, Germany).
structure (smiles),measurement,setting,value
"Nc1cccc2c1CN(C1CCC(=O)NC1=O)C2=O (stereo not drawn) [Len, lenalidomide]",p53 activity (p53 DNA binding),p53 [1],block
same,drug-triggered growth inhibition in kinase-dead D163A TP53RK transfectants,"MM cells; H929 cells, 48 h",abrogated
same,sensitivity of MM cell lines to drug,MM cells; MM.1S and H929 cells with wt-p53 versus cell lines with mutant p53,more sensitive
same,drug-triggered cell death after CRBN knock-down,MM cells; OPM2 cells (mutant p53) and H929 cells (wt-p53),only partially abrogates
same,E2F1,E2F1,increases
same,LC3-II level,[2],upregulation
same,"phosphorylation of ATM, ATR or Chk2","Chk1, ATM, ATR, Chk2",not
same,phosphorylation of Chk1,"Chk1, ATM, ATR, Chk2",inhibited
same,RRM1 expression,"RRM1, p18CDKN2C",downregulate
same,p18CDKN2C expression,"RRM1, p18CDKN2C",upregulate
same,BID expression change,p53 target genes,↓
same,CCNA1 expression change,p53 target genes,↓
same,CCNA2 expression change,p53 target genes,↓
same,CCNE2 expression change,p53 target genes,↓
same,CCNG1 expression change,p53 target genes,↓
same,CCR5 expression change,p53 target genes,↓
same,CDC25B expression change,p53 target genes,↑
same,CDKN3 expression change,p53 target genes,↓
same,CTSL2 expression change,p53 target genes,↑
same,CUL1 expression change,p53 target genes,↓
same,DDX3X expression change,p53 target genes,↑*
same,DDX11 expression change,p53 target genes,↓
same,DLEC1 expression change,p53 target genes,↓
same,FGFR3 expression change,p53 target genes,↓
same,HLA-C expression change,p53 target genes,↑
same,ILR6 expression change,p53 target genes,↓
same,ITM2B expression change,p53 target genes,↑*
same,JUND expression change,p53 target genes,↓
same,KRAS expression change,p53 target genes,↑*
same,LAPTM5 expression change,p53 target genes,↑
same,MAP2K6 expression change,p53 target genes,↓*
same,MKI67 expression change,p53 target genes,↓
same,MSX1 expression change,p53 target genes,↓
same,MYBL2 expression change,p53 target genes,↓*
same,MYC expression change,p53 target genes,↓
same,RAD21 expression change,p53 target genes,↑
same,RAD51C expression change,p53 target genes,↓
same,RHOH expression change,p53 target genes,↑*
same,RRM1 expression change,p53 target genes,↓*
same,RRM2 expression change,p53 target genes,↓*
same,SEC61A1 expression change,p53 target genes,↑*
same,SMC4 expression change,p53 target genes,↑
same,STAT3 expression change,p53 target genes,↑
same,TEAD3 expression change,p53 target genes,↓
same,UBC expression change,p53 target genes,↑*
same,XPC expression change,p53 target genes,↑
same,ZNF330 expression change,p53 target genes,↓
same,p53 phosphorylation at Ser20 and Ser37,"p53 [3]; MM.1S cells, 2.5 μM, 48 h",no change
same,phosphorylated (p-Ser15)-p53 and p53 levels,"p53 [3]; MM.1S cells, 2.5 μM, 48 h",downregulated
same,Nut3-induced upregulation of p-p53 and p53,"p53 [3]; MM.1S cells, Len or Pom 2.5 μM with Nutlin-3a 0.5 μM, 48 h",inhibited
same,p-p53/p53 downregulation,"p53 [3]; nuclear extracts from MM.1S and H929 cell lines, patient MM cells",further confirmed
same,hTERT levels in MM patient samples after treatment,hTERT [4],lower
same,hTERT expression,hTERT [5],significantly inhibited
same,telomerase (hTERT) activity,hTERT [5],significantly inhibited
